Assay results reported in PubChem BioAssay AID256 (DTP/NCI, 2004).
Values joined by “and” are separate entries in the source; they are usually repeats but may differ in a detail not shown here. Identical values can stand only once. Toxic doses and inconclusive results are not listed.

System: CD2F1 mice, L1210 leukemia ip, survival T/C
Assay: NCI In Vivo Anticancer Drug Screen. Data for tumor model L1210 Leukemia (intraperitoneal) in CD2F1 (CDF1) mice
Details: higher = longer survival
Outline: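 Transplantable tumor in mice; compound-treated vs vehicle-treated groups. Read-out = treated/control ratio of the measured endpoint.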

[1] = endpoint: mean survival time, dose: 50.0 mg/kg/injection, schedule: Q04DX003 (ip), vehicle: saline

For `CC1(C)N=C(N)N=C(N)N1c1ccc(CCCCc2ccc(S(=O)(=O)F)cc2Cl)c(Cl)c1`, which T/C (endpoint: mean survival time, dose: 2.59 mg/kg/injection, schedule: Q01DX009 (ip), vehicle: Klucel (hydroxypropylcellulose) (HPC)) is on record?
Its T/C is 105 % of control.

What about the T/C (endpoint: mean survival time, dose: 4.32 mg/kg/injection, schedule: Q01DX009 (ip), vehicle: Klucel (hydroxypropylcellulose) (HPC)) of the same compound?
The T/C was 105 % of control.

What about the T/C (endpoint: mean survival time, dose: 7.2 mg/kg/injection, schedule: Q01DX009 (ip), vehicle: Klucel (hydroxypropylcellulose) (HPC)) of the same compound?
The T/C was 116 % of control.

What about the T/C (endpoint: mean survival time, dose: 7.5 mg/kg/injection, schedule: Q01DX009 (ip), vehicle: Klucel (hydroxypropylcellulose) (HPC)) of the same compound?
Its T/C is 100 % of control.

What about the T/C (endpoint: mean survival time, dose: 12.5 mg/kg/injection, schedule: Q01DX009 (ip), vehicle: saline with Tween-80) of the same compound?
The T/C was 117 % of control.

And the T/C (endpoint: mean survival time, dose: 15.0 mg/kg/injection, schedule: Q01DX009 (ip), vehicle: Klucel (hydroxypropylcellulose) (HPC))?
Its T/C is 104 % of control.

What about the T/C (endpoint: mean survival time, dose: 30.0 mg/kg/injection, schedule: Q01DX009 (ip), vehicle: Klucel (hydroxypropylcellulose) (HPC)) of the same compound?
The T/C was 113 % of control.

And the T/C [1]?
Its T/C is 103 % of control.

And the T/C (endpoint: mean survival time, dose: 60.0 mg/kg/injection, schedule: Q01DX009 (ip), vehicle: Klucel (hydroxypropylcellulose) (HPC))?
The T/C was 115 % of control.

And the T/C (endpoint: mean survival time, dose: 75.0 mg/kg/injection, schedule: Q04DX003 (ip), vehicle: saline)?
Its T/C is 104 % of control.

What about the T/C (endpoint: mean survival time, dose: 100.0 mg/kg/injection, schedule: Q01DX009 (ip), vehicle: saline with Tween-80) of the same compound?
Its T/C is 97 % of control.

What about the T/C (endpoint: mean survival time, dose: 110.0 mg/kg/injection, schedule: Q04DX003 (ip), vehicle: saline) of the same compound?
The T/C was 121 % of control and 105 % of control.

What about the T/C (endpoint: mean survival time, dose: 133.0 mg/kg/injection, schedule: Q04DX003 (ip), vehicle: saline with Tween-80) of the same compound?
The T/C was 158 % of control.

And the T/C (endpoint: mean survival time, dose: 300.0 mg/kg/injection, schedule: Q04DX003 (ip), vehicle: saline with Tween-80)?
The T/C was 107 % of control.

What about the T/C (endpoint: median survival time, dose: 27.0 mg/kg/injection, schedule: Q01DX009 (ip), vehicle: saline with Tween-80) of the same compound?
The T/C was 156 % of control.

What about the T/C (endpoint: median survival time, dose: 40.0 mg/kg/injection, schedule: Q01DX009 (ip), vehicle: saline with Tween-80) of the same compound?
The T/C was 156 % of control and 162 % of control.

What about the T/C (endpoint: median survival time, dose: 60.0 mg/kg/injection, schedule: Q01DX009 (ip), vehicle: saline with Tween-80) of the same compound?
Its T/C is 158 % of control.

And the T/C (endpoint: median survival time, dose: 90.0 mg/kg/injection, schedule: Q01DX009 (ip), vehicle: saline with Tween-80)?
Its T/C is 168 % of control.

What about the T/C (endpoint: median survival time, dose: 200.0 mg/kg/injection, schedule: Q04DX003 (ip), vehicle: saline with Tween-80) of the same compound?
Its T/C is 167 % of control.

And the T/C (endpoint: median survival time, dose: 225.0 mg/kg/injection, schedule: Q04DX003 (ip), vehicle: saline with Tween-80)?
Its T/C is 164 % of control.

How did the T/C (endpoint: mean survival time, dose: 20.0 mg/kg/injection, schedule: Q04DX003 (ip), vehicle: saline with Tween-80) turn out when `C=C1C(=O)OCC2C(C(=O)O)=CC3C(C)C(C)=CC123` (stereo not drawn) was run?
The T/C was 109 % of control.

And the T/C (endpoint: mean survival time, dose: 40.0 mg/kg/injection, schedule: Q04DX003 (ip), vehicle: saline with Tween-80)?
Its T/C is 121 % of control.

What about the T/C (endpoint: mean survival time, dose: 80.0 mg/kg/injection, schedule: Q04DX003 (ip), vehicle: saline with Tween-80) of the same compound?
The T/C was 120 % of control.

What does the source list for `CN1c2ccccc2C2CC(CC#N)CC(=O)C21` (stereo not drawn)?
T/C (endpoint: mean survival time, dose: 100.0 mg/kg/injection, schedule: Q01DX001 (ip), vehicle: saline with Tween-80): 96 % of control; T/C (endpoint: mean survival time, dose: 200.0 mg/kg/injection, schedule: Q01DX001 (ip), vehicle: saline with Tween-80): 93 % of control; T/C (endpoint: mean survival time, dose: 400.0 mg/kg/injection, schedule: Q01DX001 (ip), vehicle: saline with Tween-80): 95 % of control

Which results are given for `Nc1nc(Nc2ccccc2)c2ncn(C3OC(CO)C(O)C3O)c2n1` (stereo not drawn)?
T/C (endpoint: mean survival time, dose: 6.25 mg/kg/injection, schedule: Q01DX005 (ip), vehicle: distilled water + Tween-80): 98 % of control; T/C (endpoint: mean survival time, dose: 12.5 mg/kg/injection, schedule: Q01DX005 (ip), vehicle: distilled water + Tween-80): 98 % of control; T/C (endpoint: mean survival time, dose: 25.0 mg/kg/injection, schedule: Q01DX005 (ip), vehicle: distilled water + Tween-80): 102 % of control; T/C (endpoint: mean survival time, dose: 50.0 mg/kg/injection, schedule: Q01DX005 (ip), vehicle: distilled water + Tween-80): 101 % of control; T/C (endpoint: mean survival time, dose: 100.0 mg/kg/injection, schedule: Q01DX005 (ip), vehicle: distilled water + Tween-80): 98 % of control

What does the source list for `CCN(CC)CCOC(=O)c1ccc(NC(=O)COc2ccc3ccccc3c2)cc1`?
T/C (endpoint: mean survival time, dose: 12.5 mg/kg/injection, schedule: Q01DX009 (ip), vehicle: other): 98 % of control and 97 % of control; T/C (endpoint: mean survival time, dose: 25.0 mg/kg/injection, schedule: Q01DX009 (ip), vehicle: other): 97 % of control; T/C (endpoint: mean survival time, dose: 50.0 mg/kg/injection, schedule: Q01DX009 (ip), vehicle: other): 98 % of control and 93 % of control; T/C (endpoint: mean survival time, dose: 100.0 mg/kg/injection, schedule: Q01DX009 (ip), vehicle: other): 94 % of control and 93 % of control; T/C (endpoint: mean survival time, dose: 200.0 mg/kg/injection, schedule: Q01DX009 (ip), vehicle: other): 97 % of control and 93 % of control

Which T/C (endpoint: mean survival time, dose: 0.19 mg/kg/injection, schedule: Q01DX005 (ip), vehicle: water) does the source give for `CNCC(=O)NC(CO)C(=O)NC(CO)C(=O)NC1C(C(N)=O)OC(n2ccc(N)nc2=O)C(O)C1O` (stereo not drawn) here?
The T/C was 98 % of control.

What about the T/C (endpoint: mean survival time, dose: 0.38 mg/kg/injection, schedule: Q01DX005 (ip), vehicle: water) of the same compound?
The T/C was 104 % of control.

What about the T/C (endpoint: mean survival time, dose: 0.75 mg/kg/injection, schedule: Q01DX005 (ip), vehicle: water) of the same compound?
The T/C was 98 % of control.

With `O=C1c2ccccc2CCC12OC2c1ccc(Cl)cc1` (stereo not drawn) as the compound, how does the T/C [1] read?
The T/C was 106 % of control.

What about the T/C (endpoint: mean survival time, dose: 100.0 mg/kg/injection, schedule: Q04DX003 (ip), vehicle: saline) of the same compound?
The T/C was 101 % of control.

What about the T/C (endpoint: mean survival time, dose: 200.0 mg/kg/injection, schedule: Q04DX003 (ip), vehicle: saline) of the same compound?
Its T/C is 101 % of control.

What about the T/C (endpoint: mean survival time, dose: 400.0 mg/kg/injection, schedule: Q04DX003 (ip), vehicle: saline) of the same compound?
Its T/C is 98 % of control.
